{"source": "patent US20240024372A1", "about": "“COMPOUNDS AND METHODS TO TREAT CYSTIC FIBROSIS” (City of Hope, priority 2020, published 2024)", "tested_on": "HuBEC cells", "assay": "Uptake of BODIPY-labeled exosomes by HuBEC (light microscopy)", "format": "cell-based, human", "conditions": "HuBEC pre-treated with 200 μM Genistein, 37° C., 30 minutes, then BODIPY-labeled MSC-derived CFZF-VPR exosomes 3 h", "description": "FIGS. 7A-7B show exosome uptake inhibition. FIG. 7A: To study the pathway of exosome uptake, HuBEC cells were pre-treated with 200 μM of Genistein and incubated at 37° C. for 30 minutes before exosome addition, and then incubated with BODIPY-labeled exosomes at 37° C. for 3 h. FIG. 7B: Uptake was quantified by determining the percentage of BODIPY-fluorescence intensity.\nExosome labeling. Exosomal membrane was labeled with BODIPY TR ceramide, according to the manufacturer's protocol (Molecular Probes/Invitrogen Life Technologies, Carlsbad, California, USA). Briefly, 5e+10 exosomes were stained with 10 μmol/L BODIPY TR ceramide. Excess fluorescent dye was removed by using Exosome Spin Columns (Life Technologies, Carlsbad, California, USA). BODIPY-labeled exosomes were dropped on 10e+3 cells and incubated in exosome depleted medium at 37° C. and 5% CO2. Bodipy-labeled exosomes uptake was evaluated by light microscopy.\nLight microscopy and imaging. Cells were cultivated fixed with BD cytofix/Cytoperm™ fixation/permeabilization Kit (Cat. No. 554715 BD bioscience, Franklin Lakes, NJ, USA) at room temperature for 20 minutes and then stained with fluorescent 488-Phalloidin (green) for actin using the manufacturer's recommendations (Molecular Probes/Invitrogen Life Technologies). Fluorescence images were collected on Zeiss LSM-700 confocal microscope. […]", "data": [{"smiles": "O=c1c(-c2ccc(O)cc2)coc2cc(O)cc(O)c12", "note": "[genistein]", "values": [{"measurement": "inhibition of exosome uptake (BODIPY-fluorescence intensity)", "value": "inhibition of the MSC derived CFZF-VPR exosome uptake"}]}]}
